Format in all cases: cell-based, Human
One test relates to HCT116 (p53+/+) cells. The experiment in a line: In vitro cell proliferation assay (SRB assay) on HCT116 cells. The conditions noted are these: for relative growth rate: 10 μM APTM, percentage of control. How it is done: (§1) Human colon cancer cell line HCT116 (p53+/+) was purchased from ATCC and the p53−/− HCT116 cell line was provided by Bert Vogelstein, Johns Hopkins University. Cells were cultured in McCoy's 5A medium supplemented with 10% FBS, 100 units/ml penicillin G, and 100 μg/ml streptomycin in humidified atmosphere with 5% CO2. Cells were passaged twice weekly to maintain logarithmic growth.
(§2) The anti-proliferative effects of APTM on cancer cell lines were assessed by sulforhodamine B (SRB) colorimetric assay. Cells were seeded in 96-well plates at densities of 5,000 cells per well and cultured overnight. Then cells were susceptible to APTM at indicated concentrations and cultured for indicated times. After incubation, attached cells were fixed with 50 μL cold 50% (w/v) trichloroacetic acid (TCA) for 1 hour at 4° C., washed 5 times with slow-running tap water, and stained with 100 μL 0.4% (w/v) SRB. Optical density at 515 nm (OD515) was measured using a microplate reader (Molecular Devices) after mixing the protein-bound dye with 200 μL 10 mM Tris base solution (pH 10.5). The relative cell growth rate was determined with the following equation: Relative Growth (%)=OD (treated)/OD (control). The IC50 value was defined as the concentration required for a 50% reduction in cell growth.
A general note: Sulforhodamine B stains cellular protein and so reports cell mass.

Test [1] relates to HCT116 p53−/− cells. The test is described as follows: In vitro cell proliferation assay (SRB assay) on HCT116 p53-/- cells. How it is done: as §1, §2
Test [2] relates to HCT116 cells. The experiment in a line: Colony formation assay. To be noted: 8 days. How it is done:
HCT116 cells were plated at 3,000 cells/well in six-well plates and cultured with indicated concentrations of APTM for 8 days. Cells were stained with 0.2% (w/v) crystal violet in buffered formalin for 20 minutes, and colonies were then photographed and quantified as previously described.

In test [3] the test system is HCT116 cells. The test is described as follows: Analysis of cell cycle by flow cytometry (PI staining). To be noted: 48 hours. The method, then:
Cell cycle distribution was determined by staining DNA with propidium iodide (PI). Briefly, 1.0×10^6 cells were incubated with or without APTM for 48 hours. Cells were washed with cold PBS and fixed in 70% ethanol at −20° C. for 2 hours. After washing with PBS, cells were stained with cold PI solution (20 μg/ml PI and 200 μg/mI RNase in PBS) for 30 minutes at room temperature in the dark. The percentage of cells in different phases of the cell cycle was determined by flow cytometer (BD Bioscience) and analyzed using FlowJo software.
For orientation: A flow cytometer gives signals particle by particle.

The next test deals with HCT116 p53+/+ cells. The experiment in a line: Analysis of apoptosis by flow cytometry (Annexin V-FITC/PI). The conditions noted are these: 48 hours, control 2.53%. How it is done: (§3) Annexin V-FITC/PI double staining method was employed for the apoptosis assay in HCT116 p53+/+ and HCT116 p53−/− cells (1×10^6/well, 6-well plate). After 48 hours of treatment with APTM, cells were harvested in 15 ml centrifuge tubes by gentle scraping followed by centrifugation at 300×g for 5 minutes at room temperature. Cell suspension was washed two times with cold PBS by centrifugation at 300×g for 5 minutes at room temperature. Then cells were harvested, washed twice with cold PBS, and resuspended in 1×binding buffer (100 μL). Cells were transferred into a 1.5 ml micro-centrifuge tubes and stained with propidium iodide (5 μL) and FITC annexin V (5 μL). Cells were briefly vortexed after incubation for 15 minutes in the dark at room temperature. Then cells were filtered and analyzed by flow cytometry. Total apoptotic cells (FITC to Annexin V positive) were counted.

Test [4] relates to HCT116 p53−/− cells. The test is described as follows: Analysis of apoptosis by flow cytometry (Annexin V-FITC/PI), p53-deficient cells. To be noted: 48 hours. The method, then:
as §3

Test [5] relates to HCT116 cells. The experiment in a line: Assessment of cell morphological changes (Hoechst 33258 staining). The conditions noted are these: HCT116 cells, 3, 10 and 30 μM, 48 hours. The method, then:
(§4) Cells were plated in 6-well plates (200,000 cells/well) and treated with indicated concentrations of APTM. After incubation for 48 hours, cells were collected, washed with PBS and stained with Hoechst 33258 ([…]) in buffered formalin solution containing 5.6% NP-40. Apoptotic and living cells were viewed through DAPI filter of fluorescence inverted microscope (Leica DM2500 Fluorescence Microscope) at 400× magnifications.

Test [6] deals with HCT116 p53−/− cells. The test is described as follows: Assessment of cell morphological changes (Hoechst 33258 staining), p53-deficient cells. The conditions noted are these: highest concentration of 30 μM, 48 hours. The method, then:
as §4

The subject of test [7] is p53/Bax/cPARP signaling axis in HCT116 cells. The experiment in a line: Western blotting of apoptosis markers p53, Bax, cPARP. To be noted: 48 hours. How it is done:
(§5) HCT116 cells were treated with APTM at indicated concentrations for 48 hours, and harvested via trypsinization. Protein samples were prepared by scratching cells in RIPA buffer containing protease inhibitor cocktail (Roche) and diluted in SDS-PAGE protein sample buffer. Samples were heated for 5 minutes at 100° C. Protein concentrations were measured using Direct Detect® Infrared Spectrometer (Millipore, USA) according to the manufacturer's instructions. Equal amount of proteins were loaded on 4-20% SDS-polyacrylamide (PAGE) gel. After electrophoresis, gels were transferred to a PVDF membrane (Millipore) and incubated with primary antibodies overnight at 4° C. The membranes were then washed with TBST and incubated with horseradish peroxidase-conjugated anti-rabbit or anti-mouse antibodies (1:10000, Santa Cruz, Calif., USA) for 45 min at room temperature. Proteins were visualized with SuperSignal West Dura Extended Duration Substrate or SuperSignal West Pico Chemiluminescent Substrate (Thermo Scientific) using the Amersham Imager 600 western blotting system.

Test [8] relates to Bax and cPARP expression in HCT116 p53−/− cells. The test is described as follows: Western blotting of apoptosis markers, p53-deficient cells. The conditions noted are these: different APTM concentrations. The method, then:
as §5
A general note: In western blotting, separated proteins are transferred to a membrane and probed.

From patent US20190183856A1, “METHODS FOR TREATING CANCER” (Macau University of Science and Technology, priority 2017, published 2019) come the findings set out here.

By IC50 is commonly meant the concentration needed to halve the response being measured.

Consider `Cc1cccc(C)c1Nc1sc(C(=O)c2ccc(F)cc2)c(N)c1S(=O)(=O)c1ccccc1` [APTM, [3-Amino-5-[(2,6-dimethylphenyl)amino]-4-(phenylsulfonyl)-2-thienyl](4-fluorophenyl)methanone], for which the values for the relative growth rate in the test on HCT116 (p53+/+) cells (24 hours) and with HCT116 (p53+/+) cells (72 hours) were 76.36% and 24.57%, respectively. Besides, the IC50 in the test on HCT116 (p53+/+) cells (Homo sapiens, HCT-116, 48 hours, SRB assay, read-out: IC50 value (50% reduction in cell growth)) was 6.57 µM; in the test on HCT116 p53−/− cells [1] (Homo sapiens, HCT-116, HCT116 p53−/− cells, 33.3 μM highest concentration tested, read-out: IC50 value (50% reduction in cell growth)) it was over 33.3 µM. Also, in the test on HCT116 p53−/− cells [1] (HCT116 p53−/− vs HCT116 p53+/+), the “resistance of p53 deficient cells versus HCT116 p53+/+ cells (IC50 ratio)” value was “more than 5 fold”. For the same compound, the Colony formation ability result in the test on HCT116 cells [2] (3.0 μM) is “significantly decreased”; in the test on HCT116 cells [2] (10.0 μM) it was “almost vanished”. In addition, the “sub-G0/G1 fraction of cells” value in the test with HCT116 cells [3] (concentration-dependent) is reported as “increased”. Further, the “proportions of cells in G0/G1, S and G2/M phases” value with HCT116 cells [3] (different concentrations) is on record as “almost unchanged”. Besides, the “percentage of apoptotic cells (annexin V positive)” value stood at 7.67% with HCT116 p53+/+ cells (3 μM), 20.86% in the test with HCT116 p53+/+ cells (10 μM) and 43.7% in the test on HCT116 p53+/+ cells (30 μM). Besides, the “APTM induced apoptosis (annexin V-FITC/PI flow cytometry)” value with HCT116 p53−/− cells [4] was “resistant”. Besides, the “apoptotic morphological changes (Hoechst staining)” value in the test on HCT116 cells [5] is on record as “typical morphological characteristics of apoptosis”. In addition, in the test with HCT116 p53−/− cells [6], the “nuclear staining / apoptotic morphological changes (Hoechst staining)” value is given as “reserved normal nuclear staining”. Moreover, the Bax level result in [7] was “induced”. Besides, in test [7], the “cleaved nuclear poly(ADP-ribose) polymerase (cPARP) level” value is recorded as “concentration-dependently induction”. Besides, the p53 protein level entry in test [7] is on record as “substantially induced”. The “Bax and cPARP expression” value in [8] is on record as “blunted”.
